“Also recorded” adds a separate entry of the source.
target: T1, Naegleria Tet1 (NgTet1) (Naegleria gruberi, UniProt D2W6T1); assay: FP competitive binding assay; settings: 2.5 and 1.25 mM
T1 sequence (D2W6T1 1-321): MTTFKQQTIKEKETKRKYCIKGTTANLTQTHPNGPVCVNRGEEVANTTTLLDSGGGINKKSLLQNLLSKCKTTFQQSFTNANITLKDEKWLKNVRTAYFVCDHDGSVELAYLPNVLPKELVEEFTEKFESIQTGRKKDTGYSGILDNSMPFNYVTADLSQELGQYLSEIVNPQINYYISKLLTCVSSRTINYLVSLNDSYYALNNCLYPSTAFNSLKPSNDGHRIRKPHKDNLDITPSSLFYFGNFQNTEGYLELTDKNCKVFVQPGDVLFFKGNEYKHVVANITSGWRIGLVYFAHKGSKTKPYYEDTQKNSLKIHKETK

inhibition at the highest concentrations tested	Structure (SMILES)
very slight inhibition	O=C(O)CC[C@@H](O)C(=O)O [compound 7, D-2-hydroxyglutaric acid]

same assay, conditions: at the concentrations tested (up to 5.0 mM for 8 and 9)

Structure (SMILES)	competitive displacement of 3 from NgTet1
O=C(O)CCC(=O)C(=O)O [compound 4, α-ketoglutarate]	showed the ability to competitively displace 3
O=C(O)CNC(=O)C(=O)O [compound 5, N-oxalyl glycine]	showed the ability to competitively displace 3
O=C(O)c1ccnc(C(=O)O)c1 [compound 6, pyridine 2,4-dicarboxylic acid]	showed the ability to competitively displace 3
Cc1cn([C@H]2C[C@H](O)[C@@H](CO)O2)c(=O)nc1N [compound 8, 5-methyl-2'-deoxycytidine]	Neither 5mC (8) nor 5hmC (9) showed competitive binding; also recorded: unable to competitively displace 3
Nc1nc(=O)n([C@H]2C[C@H](O)[C@@H](CO)O2)cc1CO [compound 9, 2'-deoxy-5-(hydroxymethyl)cytidine]	Neither 5mC (8) nor 5hmC (9) showed competitive binding; also recorded: unable to competitively displace 3
